The nature of the assay: ABTS free radicals scavenging assay (antioxidant assay kit, Cayman). It is filed as biochemical. The following applies: 0.0625-1 mM tested; 5 minutes room temperature; absorbance 750 nm. As for the experimental part:
An antioxidant assay kit (Cayman) was used for this assay according to the instructions. Each of samples including 10 μl of 6.25%˜100% conditioned medium or 0.0625˜1 mM L-ascorbic acid (L-AA) was mixed with 10 μl of metmyoglobin, 150 μl chromogen, and 40 μl hydrogen peroxide for reaction at room temperature for 5 minutes. Because stem cell conditioned medium (CM) is a composite component, a percentage (%) instead of a concentration (mM) is presented as the unit of CM herein.
Referring to FIG. 2A, it is a representative diagram showing the effect of WJMSC-CM on scavenging ABTS free radicals. Various concentration of L-ascorbic acid (L-AA) or stem cell conditioned medium (CM) was mixed with an appropriate amount of ABTS and oxidants for reaction. ABTS has an absorption peak at 750 nm. This assay is based on the ability of antioxidants to reduce ABTS into its colourless form and the extent of decolourisation corresponding to the absorbance reduction of ABTS.

This note sets out measurements from patent US9284528B2, “Use of stem cell conditioned medium to inhibit oxidation for anti-aging skin” (GROWGENE BIOTECH INC., priority 2014, dated 2016).

Structures are written as SMILES.

On to `O=C1O[C@H]([C@@H](O)CO)C(O)=C1O` [L-ascorbic acid], for which the IC50 (as a rule, the point on the concentration scale where inhibition reaches its midpoint) came to 806 µM.
